In ChEMBL document CHEMBL5046284, “Structure-Based Design of a Chemical Probe Set for the 5-HT5A Serotonin Receptor” (J Med Chem, 2022):
Activity calls are given as the source filed them.

Legend:
[1] = target: T1, 5-hydroxytryptamine receptor 5A (Homo sapiens, UniProt P47898); assay: Displacement of [3H]-5-CT from human 5-HT5A receptor at 1 uM incubated for 2 hr by radioligand binding assay
Mus musculus [2] = assay: Effect on baseline mechanical thresholds in IT dosed […] mouse measured after 30 mins by von Frey test; format: functional, organism-based
[3] = target: T2, 5-hydroxytryptamine receptor 1A (Homo sapiens) (UniProt P08908); assay: (§1) Binding affinity to 5-HT1AR (unknown origin) assessed as inhibition constant
T2 sequence (whole entry): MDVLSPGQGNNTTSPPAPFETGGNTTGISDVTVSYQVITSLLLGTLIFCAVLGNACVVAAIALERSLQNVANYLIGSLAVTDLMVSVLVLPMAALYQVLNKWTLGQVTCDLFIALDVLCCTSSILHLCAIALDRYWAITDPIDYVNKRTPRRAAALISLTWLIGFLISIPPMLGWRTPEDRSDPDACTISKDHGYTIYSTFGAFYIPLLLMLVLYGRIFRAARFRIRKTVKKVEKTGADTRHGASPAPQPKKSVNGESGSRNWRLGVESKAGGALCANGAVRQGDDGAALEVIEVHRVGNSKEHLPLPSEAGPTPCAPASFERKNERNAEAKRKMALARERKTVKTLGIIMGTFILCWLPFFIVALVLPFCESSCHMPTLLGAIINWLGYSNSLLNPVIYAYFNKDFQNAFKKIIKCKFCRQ

[4] = target: 5-hydroxytryptamine receptor 2B (Homo sapiens, UniProt P41595); assay: Binding affinity to 5-HT2BR (unknown origin) assessed as inhibition constant
Mus musculus [5] = assay: Sedative activity in IT dosed […] mouse assessed as effect on locomotor activity measured after 60 mins by rotarod test; format: toxicity, organism-based; conditions: in vivo, icv_or_intrathecal, 1 h
Mus musculus [6] = assay: Antiallodynic activity in IT dosed […] mouse model of spared nerve injury-induced neuropathic pain assessed as increase in paw withdrawal mechanical threshold measured after 30 mins by von Frey test; format: functional, organism-based
[7] = target: 5-hydroxytryptamine receptor 7 (Homo sapiens) (UniProt P34969); assay: Binding affinity to 5-HT7AR (unknown origin)
[8] = target: Atypical chemokine receptor 3 (Homo sapiens) (UniProt P25106); assay: Agonist activity at CXCR7 (unknown origin) transfected in HTLA cells assessed as beta-arrestin 2 recruitment at 10 uM incubated for 18 to 20 hrs by luciferin based Tango assay; format: functional, cell-based; conditions: time 18-20 hrs
[9] = target: T1, 5-hydroxytryptamine receptor 5A; assay: Displacement of [3H]-5-CT from human 5-HT5A receptor incubated for 2 hr by radioligand binding assay
[10] = target: T1, 5-hydroxytryptamine receptor 5A; assay: Displacement of [3H]-5-CT from human 5-HT5A receptor at 32 uM incubated for 2 hr by radioligand binding assay
[11] = target: T3, 5-hydroxytryptamine receptor 1A (Homo sapiens, UniProt P08908); assay: as §1
T3 sequence (P08908 whole entry): T2 sequence (whole entry)

[12] = target: 5-hydroxytryptamine receptor 1B (Homo sapiens, UniProt P28222); assay: Binding affinity to 5-HT1BR (unknown origin) assessed as inhibition constant
HEK-293T = assay: Cytotoxicity against HEK293T cells assessed as reduction in cell viability at high concentration incubated for overnight; format: toxicity, cell-based; conditions: human
[13] = target: T4, 5-hydroxytryptamine receptor 3A (Homo sapiens, UniProt P46098); assay: (§2) Binding affinity to 5-HT3 (unknown origin) assessed as inhibition constant
T4 sequence (P46098 whole entry): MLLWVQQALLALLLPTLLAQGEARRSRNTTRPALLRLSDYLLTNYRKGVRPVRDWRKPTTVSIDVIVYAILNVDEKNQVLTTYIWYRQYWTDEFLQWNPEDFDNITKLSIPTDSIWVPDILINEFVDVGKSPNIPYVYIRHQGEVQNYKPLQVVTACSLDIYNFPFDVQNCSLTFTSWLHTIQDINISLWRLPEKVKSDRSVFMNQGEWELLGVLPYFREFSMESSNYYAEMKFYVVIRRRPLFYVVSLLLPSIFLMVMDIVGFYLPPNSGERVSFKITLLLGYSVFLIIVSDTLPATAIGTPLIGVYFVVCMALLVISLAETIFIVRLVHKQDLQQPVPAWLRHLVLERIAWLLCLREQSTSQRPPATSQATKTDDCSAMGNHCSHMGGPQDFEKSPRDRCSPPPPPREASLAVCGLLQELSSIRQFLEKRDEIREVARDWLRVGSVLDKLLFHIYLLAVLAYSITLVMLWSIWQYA

[14] = target: T1, 5-hydroxytryptamine receptor 5A; assay: Antagonist activity at human 5-HT5AR assessed as inhibition of beta-arrestin 2 recruitment by measuring reduction in RLuc8-based luminescence incubated for 20 to 30 mins in absence of agonist by luminescence based analysis; format: functional; conditions: filed as antagonist, time 20-30 min
[15] = target: 5-hydroxytryptamine receptor 1D (Homo sapiens, UniProt P28221); assay: Binding affinity to 5-HT1DR (unknown origin) assessed as inhibition constant
[16] = target: T5, 5-hydroxytryptamine receptor 2C (Homo sapiens, UniProt P28335); assay: (§3) Binding affinity to 5-HT2CR (unknown origin) assessed as inhibition constant
T5 sequence (P28335 whole entry): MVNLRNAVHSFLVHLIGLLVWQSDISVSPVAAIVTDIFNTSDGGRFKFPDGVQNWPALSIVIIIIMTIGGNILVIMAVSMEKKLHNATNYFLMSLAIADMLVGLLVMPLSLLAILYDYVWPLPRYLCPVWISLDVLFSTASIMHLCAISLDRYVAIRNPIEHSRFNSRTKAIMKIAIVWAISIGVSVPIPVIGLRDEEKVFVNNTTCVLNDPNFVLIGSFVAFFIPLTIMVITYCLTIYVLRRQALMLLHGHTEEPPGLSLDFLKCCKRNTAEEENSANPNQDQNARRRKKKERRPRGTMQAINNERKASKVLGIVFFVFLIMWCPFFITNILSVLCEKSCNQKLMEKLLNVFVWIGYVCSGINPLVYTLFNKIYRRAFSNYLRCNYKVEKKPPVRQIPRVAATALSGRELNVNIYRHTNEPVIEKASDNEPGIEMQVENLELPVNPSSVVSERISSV

[17] = target: 5-hydroxytryptamine receptor 2A (Homo sapiens, UniProt P28223); assay: Binding affinity to 5-HT2AR (unknown origin) assessed as inhibition constant
[18] = target: T1, 5-hydroxytryptamine receptor 5A; assay: Antagonist activity at human 5-HT5AR assessed as […] of [35S]GTPgammaS binding at 100 uM incubated for 3 to 5 hrs; format: functional; conditions: filed as antagonist, time 3-5 hrs
[19] = target: Melatonin receptor type 1A (Homo sapiens) (UniProt P48039); assay: Agonist activity at MTNR1A (unknown origin) transfected in HTLA cells assessed as beta-arrestin 2 recruitment at 10 uM incubated for 18 to 20 hrs by luciferin based Tango assay; format: functional, cell-based; conditions: time 18-20 hrs
[20] = target: T6, Alpha-2A adrenergic receptor (Homo sapiens) (UniProt P08913); assay: Agonist activity at ADRA2A (unknown origin) transfected in HTLA cells assessed as beta-arrestin 2 recruitment at 10 uM incubated for 18 to 20 hrs by luciferin based Tango assay; format: functional, cell-based; conditions: time 18-20 hrs
T6 sequence (whole entry): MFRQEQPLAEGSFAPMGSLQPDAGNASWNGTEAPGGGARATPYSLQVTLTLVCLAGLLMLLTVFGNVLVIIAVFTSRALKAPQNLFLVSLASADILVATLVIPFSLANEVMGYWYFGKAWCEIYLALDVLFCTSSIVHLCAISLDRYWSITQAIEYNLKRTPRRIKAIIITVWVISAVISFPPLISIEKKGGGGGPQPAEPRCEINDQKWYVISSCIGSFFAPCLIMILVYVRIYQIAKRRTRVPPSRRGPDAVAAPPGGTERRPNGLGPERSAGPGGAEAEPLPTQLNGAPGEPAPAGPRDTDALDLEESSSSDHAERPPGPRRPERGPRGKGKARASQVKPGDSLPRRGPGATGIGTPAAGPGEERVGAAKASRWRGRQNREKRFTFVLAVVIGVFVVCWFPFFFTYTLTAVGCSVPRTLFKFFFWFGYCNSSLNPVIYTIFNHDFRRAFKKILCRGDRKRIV

[21] = target: T7, 5-hydroxytryptamine receptor 3A (Homo sapiens) (UniProt P46098); assay: as §2
T7 sequence (whole entry): T4 sequence (P46098 whole entry)

[22] = target: T8, 5-hydroxytryptamine receptor 2C (Homo sapiens) (UniProt P28335); assay: as §3
T8 sequence (whole entry): T5 sequence (P28335 whole entry)

[23] = target: T1, 5-hydroxytryptamine receptor 5A; assay: Displacement of [3H]-5-CT from human 5-HT5A receptor at 100 uM incubated for 2 hr by radioligand binding assay
[24] = target: T1, 5-hydroxytryptamine receptor 5A; assay: Agonist activity at human 5-HT5A receptor transfected in HTLA cells assessed as increase in beta-arrestin 2 recruitment at 10 uM incubated for 18 to 20 hrs by bright-Glo reagent based Tango assay; format: functional, cell-based
[25] = target: T1, 5-hydroxytryptamine receptor 5A; assay: Agonist activity at human 5-HT5A receptor transfected in HTLA cells assessed as increase in beta-arrestin 2 recruitment by measuring maximal efficacy at 10 uM incubated for 18 to 20 hrs by bright-Glo reagent based Tango assay relative to control; format: functional, cell-based; conditions: time 18-20 hrs
[26] = target: T8, 5-hydroxytryptamine receptor 2C (Homo sapiens); assay: Agonist activity at 5-HT2CR (unknown origin) transfected in HTLA cells assessed as beta-arrestin 2 recruitment at 10 uM incubated for 18 to 20 hrs by luciferin based Tango assay; format: functional, cell-based; conditions: filed as agonist, time 18-20 hrs
Homo sapiens = species: Homo sapiens; assay: Binding affinity to human 5-HT5A receptor W117A mutant ssessed as fold reduction in binding by competition binding assay relative to control; conditions: filed as agonist
[27] = target: D(2) dopamine receptor (Homo sapiens) (UniProt P14416); assay: Agonist activity at DRD2 (unknown origin) transfected in HTLA cells assessed as beta-arrestin 2 recruitment at 10 uM incubated for 18 to 20 hrs by luciferin based Tango assay; format: functional, cell-based; conditions: filed as agonist, time 18-20 hrs
D(2) dopamine receptor (Homo sapiens), sequence (P14416 whole entry): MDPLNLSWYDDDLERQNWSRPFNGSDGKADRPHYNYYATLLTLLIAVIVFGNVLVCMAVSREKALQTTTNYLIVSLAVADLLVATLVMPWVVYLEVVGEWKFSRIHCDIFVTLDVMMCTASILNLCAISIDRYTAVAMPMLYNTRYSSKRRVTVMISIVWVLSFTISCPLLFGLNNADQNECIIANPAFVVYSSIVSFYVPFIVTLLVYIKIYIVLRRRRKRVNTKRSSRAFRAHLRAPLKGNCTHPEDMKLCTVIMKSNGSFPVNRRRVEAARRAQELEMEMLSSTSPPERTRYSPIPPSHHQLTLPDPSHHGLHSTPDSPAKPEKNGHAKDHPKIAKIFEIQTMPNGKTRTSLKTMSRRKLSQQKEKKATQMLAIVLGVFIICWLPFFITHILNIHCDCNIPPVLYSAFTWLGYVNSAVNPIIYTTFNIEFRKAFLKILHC

5-hydroxytryptamine receptor 2B, sequence (P41595 whole entry): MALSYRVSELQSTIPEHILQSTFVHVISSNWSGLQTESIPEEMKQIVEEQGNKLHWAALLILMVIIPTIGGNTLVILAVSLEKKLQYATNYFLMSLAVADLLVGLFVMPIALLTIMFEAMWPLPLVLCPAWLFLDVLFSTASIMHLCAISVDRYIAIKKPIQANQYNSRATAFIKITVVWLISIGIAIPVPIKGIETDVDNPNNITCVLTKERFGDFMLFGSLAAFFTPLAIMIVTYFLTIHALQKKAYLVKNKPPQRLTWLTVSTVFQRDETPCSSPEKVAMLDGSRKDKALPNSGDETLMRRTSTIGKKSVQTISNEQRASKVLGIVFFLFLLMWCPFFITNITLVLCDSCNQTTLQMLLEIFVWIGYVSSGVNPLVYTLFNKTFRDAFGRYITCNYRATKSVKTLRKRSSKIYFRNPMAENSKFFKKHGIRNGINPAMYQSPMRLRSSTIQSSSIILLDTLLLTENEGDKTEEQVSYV
T1 sequence (P47898 whole entry): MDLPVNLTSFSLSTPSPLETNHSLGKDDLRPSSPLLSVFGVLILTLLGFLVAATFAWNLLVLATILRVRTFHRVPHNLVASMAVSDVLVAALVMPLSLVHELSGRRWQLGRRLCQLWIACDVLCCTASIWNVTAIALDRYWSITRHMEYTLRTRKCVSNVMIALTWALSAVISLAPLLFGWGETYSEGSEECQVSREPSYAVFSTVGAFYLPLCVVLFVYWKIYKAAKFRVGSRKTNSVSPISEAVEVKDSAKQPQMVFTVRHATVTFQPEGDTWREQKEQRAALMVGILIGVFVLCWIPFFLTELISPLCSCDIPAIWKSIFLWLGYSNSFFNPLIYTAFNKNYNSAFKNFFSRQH
5-hydroxytryptamine receptor 7 (Homo sapiens), sequence (P34969 whole entry): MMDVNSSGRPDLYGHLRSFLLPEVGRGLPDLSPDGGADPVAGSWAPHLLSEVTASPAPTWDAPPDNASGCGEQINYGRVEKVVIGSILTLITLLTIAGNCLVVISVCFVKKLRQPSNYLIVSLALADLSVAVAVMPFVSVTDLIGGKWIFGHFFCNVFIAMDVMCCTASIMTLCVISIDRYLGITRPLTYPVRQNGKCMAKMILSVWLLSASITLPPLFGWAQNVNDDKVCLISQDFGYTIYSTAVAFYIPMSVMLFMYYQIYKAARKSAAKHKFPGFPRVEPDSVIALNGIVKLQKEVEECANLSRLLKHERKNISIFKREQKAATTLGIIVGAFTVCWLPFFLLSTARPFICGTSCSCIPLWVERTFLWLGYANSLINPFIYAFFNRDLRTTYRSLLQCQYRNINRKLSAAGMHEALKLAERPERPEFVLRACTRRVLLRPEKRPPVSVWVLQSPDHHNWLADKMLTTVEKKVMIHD
5-hydroxytryptamine receptor 2A, sequence (P28223 whole entry): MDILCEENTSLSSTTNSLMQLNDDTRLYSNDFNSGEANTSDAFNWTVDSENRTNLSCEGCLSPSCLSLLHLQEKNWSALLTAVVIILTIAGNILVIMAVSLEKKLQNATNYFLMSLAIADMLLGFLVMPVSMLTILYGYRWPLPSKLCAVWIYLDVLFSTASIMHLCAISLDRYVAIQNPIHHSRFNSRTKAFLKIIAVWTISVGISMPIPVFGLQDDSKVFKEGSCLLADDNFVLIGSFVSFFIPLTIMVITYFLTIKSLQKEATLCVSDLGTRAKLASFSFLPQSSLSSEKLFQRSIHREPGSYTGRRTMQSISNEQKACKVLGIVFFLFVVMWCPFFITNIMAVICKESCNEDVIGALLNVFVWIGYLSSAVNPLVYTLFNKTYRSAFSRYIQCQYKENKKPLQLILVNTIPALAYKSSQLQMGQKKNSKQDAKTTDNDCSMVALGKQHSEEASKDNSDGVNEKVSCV
5-hydroxytryptamine receptor 1D, sequence (P28221 whole entry): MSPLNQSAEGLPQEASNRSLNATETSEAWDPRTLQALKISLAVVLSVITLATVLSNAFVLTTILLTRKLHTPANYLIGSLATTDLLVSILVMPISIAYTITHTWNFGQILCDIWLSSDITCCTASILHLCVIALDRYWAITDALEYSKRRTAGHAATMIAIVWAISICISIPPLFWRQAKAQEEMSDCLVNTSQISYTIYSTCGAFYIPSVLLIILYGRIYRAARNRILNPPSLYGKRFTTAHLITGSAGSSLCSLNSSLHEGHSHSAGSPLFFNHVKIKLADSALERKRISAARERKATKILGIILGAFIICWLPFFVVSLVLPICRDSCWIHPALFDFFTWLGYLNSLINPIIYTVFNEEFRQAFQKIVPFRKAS
5-hydroxytryptamine receptor 1B, sequence (P28222 whole entry): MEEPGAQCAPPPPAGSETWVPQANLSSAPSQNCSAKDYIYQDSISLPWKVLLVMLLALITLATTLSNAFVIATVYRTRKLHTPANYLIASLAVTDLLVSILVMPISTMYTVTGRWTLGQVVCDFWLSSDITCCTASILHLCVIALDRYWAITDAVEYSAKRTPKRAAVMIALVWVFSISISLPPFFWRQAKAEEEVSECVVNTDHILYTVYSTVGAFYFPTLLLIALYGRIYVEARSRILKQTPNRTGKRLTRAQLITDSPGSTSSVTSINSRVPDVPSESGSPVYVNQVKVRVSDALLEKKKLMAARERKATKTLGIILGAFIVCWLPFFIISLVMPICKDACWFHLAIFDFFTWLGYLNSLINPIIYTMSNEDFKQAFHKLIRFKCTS
Melatonin receptor type 1A (Homo sapiens), sequence (P48039 whole entry): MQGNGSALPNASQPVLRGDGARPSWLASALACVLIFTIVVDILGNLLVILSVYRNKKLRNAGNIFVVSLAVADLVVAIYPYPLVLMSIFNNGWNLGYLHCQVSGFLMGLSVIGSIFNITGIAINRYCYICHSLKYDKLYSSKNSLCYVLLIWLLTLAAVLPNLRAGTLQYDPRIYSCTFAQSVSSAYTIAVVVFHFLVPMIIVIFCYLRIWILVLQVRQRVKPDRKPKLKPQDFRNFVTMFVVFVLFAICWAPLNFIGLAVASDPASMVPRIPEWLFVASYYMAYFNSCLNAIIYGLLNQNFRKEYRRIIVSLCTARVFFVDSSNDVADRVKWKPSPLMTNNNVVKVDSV
Atypical chemokine receptor 3 (Homo sapiens), sequence (P25106 whole entry): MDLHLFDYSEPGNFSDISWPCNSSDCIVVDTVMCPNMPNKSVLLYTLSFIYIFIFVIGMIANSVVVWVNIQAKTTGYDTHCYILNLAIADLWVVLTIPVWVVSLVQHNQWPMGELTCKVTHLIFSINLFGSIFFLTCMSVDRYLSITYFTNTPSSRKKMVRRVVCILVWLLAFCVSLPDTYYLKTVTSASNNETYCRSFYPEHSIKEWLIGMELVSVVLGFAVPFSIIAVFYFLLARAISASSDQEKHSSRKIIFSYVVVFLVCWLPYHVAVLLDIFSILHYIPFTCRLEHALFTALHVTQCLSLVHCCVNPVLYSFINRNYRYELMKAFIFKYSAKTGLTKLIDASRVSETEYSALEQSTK

Molecule `CN(C)S(=O)(=O)CCNCc1ccc(Cl)c2cccnc12` has a Ki [1] of 208 nM.

`CCS(=O)(=O)CCCNCc1ccc(Cl)c2cccnc12` was tested, and the Activity (Mus musculus [2]) was “inactive”, the Activity [3] was “inactive” and the Activity [4] was “inactive”. For the same molecule, the Activity (Mus musculus [5]) was “Non-Toxic”, the Activity (Mus musculus [6]) was “Active” and the Activity [7] was “inactive”. For the same molecule, the Activity [8] was “inactive” and the Ki [9] was greater than 10000 nM.

`O=S1(=O)CC[C@@H](CNCc2cccc3cccnc23)C1` was tested, and the Ki [1] was 570 nM.

For `CN1CC[C@H](CNCc2ccc(Cl)c3cccnc23)CC1=O`, the Ki [10] was 4000 nM.

`CN(C)S(=O)(=O)CCNCc1cccc2cccnc12` gave a Ki [9] of 229 nM.

For `O=S1(=O)CCC[C@@H](CNCc2ccc(Cl)c3cccnc23)C1`, the Ki [10] was 3100 nM.

`CN(C)S(=O)(=O)CCNCc1ccc(F)c2cccnc12` gave a Ki [9] of 271 nM.

With `Clc1ccc(CNC[C@H]2CCn3ccnc3C2)c2ncccc12` the Ki [10] was 1500 nM.

Work on `CN(C)CCN(Cc1ccc(-c2ccc(CNCCc3ccccc3)cc2)cc1)C(=O)CCC1CCCC1` yielded a Ki [11] of less than 2000 nM, a Ki [4] of less than 2000 nM and a Ki [12] of less than 2000 nM. For the same molecule, the Activity (HEK-293T) was “Non-Toxic”, the Ki [13] was less than 2000 nM and the Activity [14] was “Dose-Dependent Effect”. It also gave a Ki [15] of less than 2000 nM, a Ki [16] of less than 2000 nM and a Ki [17] of less than 2000 nM. The Activity [18] was “Active”.

For `CN(C)S(=O)(=O)CCNCc1cccc2ncccc12`, the Activity [3] was “inactive”, the Activity [4] was “inactive” and the Activity [12] was “inactive”. For the same molecule, the Activity [19] was “inactive”, the Activity [20] was “inactive” and the Activity [21] was “inactive”. For the same molecule, the Activity [15] was “inactive”, the Activity [22] was “inactive” and the Activity (Mus musculus [6]) was “inactive”. The Activity [17] was “inactive”.

Molecule `O=S1(=O)CCC[C@@H](CNCc2cccc3cccnc23)C1` has a Ki [1] of 705 nM.

`Cc1cnc(NCc2ccccc2-n2ccnc2)nc1N(C)C` was tested, and the Ki [23] was 12900 nM and the Activity [18] was “Active”.

For `CS(=O)(=O)C1(CNCc2ccc(Cl)c3cccnc23)CC1`, the EC50 [24] was 3630 nM, the Emax [25] was 10.5% and the Activity (Mus musculus [6]) was “inactive”.

With `N#CC1(c2ccccc2)CCC(NCCc2nnc3ccccn23)CC1` (stereo not drawn) the Ki [23] was 28800 nM and the Activity [18] was “Active”.

With `Cc1cnn(C[C@H](C)NCc2cccc(OCc3ccccn3)c2)c1` the Ki [23] was 20900 nM and the Activity [18] was “Active”.

In the case of `CC(C)(C)c1ccc2c(c1)CN(C[C@@H](O)COC1CCOCC1)CC2`, the Ki [23] is reported as 21400 nM and the Activity [18] is reported as “Active”.

In the case of `CS(=O)(=O)CCCNCc1ccc(Cl)c2cccnc12`, the Activity (Mus musculus [2]) is reported as “inactive”, the Activity (Mus musculus [5]) is reported as “Non-Toxic” and the Activity (Mus musculus [6]) is reported as “Active”.

In the case of `Clc1ccc(CNCCc2cccnc2)c2ncccc12`, the Ki [1] is reported as 2400 nM.

In the case of `CS(=O)(=O)C1(CNCc2cccc3cccnc23)CC1`, the Activity [26] is reported as “Active”, the Activity (Mus musculus [2]) is reported as “inactive” and the EC50 [24] is reported as 355 nM. The Activity [3] was “inactive”, the Activity [4] was “inactive” and the Activity (Mus musculus [5]) was “Non-Toxic”. The Emax [25] was 18.3%, the fold change (FC) (Homo sapiens) was 25 and the Activity (Mus musculus [6]) was “Active”. The Activity [7] was “inactive” and the Activity [27] was “Active”.

`Clc1ccc(CNCC[C@@H]2CCOC2)c2ncccc12` was tested, and the Ki [10] was 6700 nM.

Molecule `O=C1C[C@H](CNCc2ccc(Cl)c3cccnc23)CN1C1CC1` has a Ki [10] of 6700 nM.

In the case of `O=C(CCCNCc1ccc(Cl)c2cccnc12)NC1CC1`, the Ki [23] is reported as 11500 nM and the Activity [18] is reported as “Active”.

In the case of `CN(C)S(=O)(=O)C1(CNCc2ccc(Cl)c3cccnc23)CC1`, the fold change (FC) (Homo sapiens) is reported as 3.9 and the Ki [9] is reported as 107 nM.
